Active and inactive are the calls of the source. No cut-off for these calls is given here.
Experiments:
[1] = test system: Echinochloa oryzicola; experiment: Herbicide activity against Echinochloa oryzicola assessed as inhibition of root growth compound treated to seeds measured after 7 days; format: functional
[2] = test system: Echinochloa oryzicola; experiment: Herbicide activity against Echinochloa oryzicola assessed as inhibition of growth of first sheath compound treated to seeds measured after 7 days; format: functional
[3] = test system: Echinochloa oryzicola; experiment: Herbicide activity against Echinochloa oryzicola assessed as inhibition of root growth compound treated at 3 ppm to seeds measured after 7 days; format: functional, organism-based
[4] = test system: Echinochloa oryzicola; experiment: Herbicide activity against Echinochloa oryzicola assessed as inhibition of shoot growth compound treated at 3 ppm to seeds measured after 7 days; format: functional, organism-based

Structure (SMILES) | I50 [1] [ppm] | growth inhibition (GI) [2] | I50 [2] [ppm] | growth inhibition (GI) [3] | growth inhibition (GI) [4]
CCCCC[C@]12O[C@H]1CC[C@H]2OCc1ccccc1C (racemic) | 0.25 | Active |  |  | 
CCCCC[C@]12O[C@H]1CC[C@H]2OCc1ccccc1F (racemic) | 0.03 |  | 0.2 |  | 
CCCCC[C@]12O[C@H]1CC[C@H]2OCc1ccccc1Cl (racemic) | 0.5 | Active |  |  | 
CCCCC[C@]12O[C@H]1CC[C@H]2OCc1ccccc1 (racemic) | 0.03 |  | 0.2 |  | 
CCCCC[C@@]12O[C@@H]1CC[C@H]2OCc1ccccc1 (racemic) |  | Active |  | inactive | inactive
CCCCC[C@@]12O[C@@H]1CC[C@H]2OCc1ccccc1C (racemic) |  | Active |  | inactive | inactive
CCCCC[C@@]12O[C@@H]1CC[C@H]2OCc1ccccc1Cl (racemic) |  | Active |  | inactive | inactive
CCCCC[C@@]12O[C@@H]1CC[C@H]2OCc1ccccc1F (racemic) |  | Active |  | inactive | inactive
